Experimental data from patent US20180099931A1 (AbbVie S.à.r.l., priority 2016, published 2018).
Read-outs that look alike come from different tables or passages of the source.

Biological target: T1, F508delCFTR (Homo sapiens, UniProt P13569, DEL508-508)
T1 construct: expressed in transfected cells; host or cells: CFBE41o- human lung-derived epithelial cells (CFBE4lo-F508delCFTR-HRP), doxycycline-inducible
Test: Cell Surface Expression-Horse Radish Peroxidase (CSE-HRP) Assay;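 as to Maximum % activity (with co-corrector): co-corrector and positive control are both the same reference corrector at 2 µM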;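 as to Maximum % activity (without co-corrector): percent of the 2 µM on-plate positive control corrector response above DMSO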
Format: cell-based
Conditions: for Emax / Maximum % activity (with co-corrector) / Maximum % activity (without co-corrector): maximum at any tested concentration, normalized to on-plate positive control; for Emax: read-out: Maximum % activity (without co-corrector)

[1] = test compound without co-corrector
[2] = test compound without co-corrector, read-out: EC50 (without co-corrector)
[3] = with co-corrector (2 μM of 3-[(2R,4R)-4-({[1-(2,2-difluoro-1,3-benzodioxol-5-yl)cyclopropyl]carbonyl}amino)-7-methoxy-3,4-dihydro-2H-chromen-2-yl]benzoic acid)
[4] = with co-corrector (2 μM of 3-[(2R,4R)-4-({[1-(2,2-difluoro-1,3-benzodioxol-5-yl)cyclopropyl]carbonyl}amino)-7-methoxy-3,4-dihydro-2H-chromen-2-yl]benzoic acid), read-out: EC50 (with co-corrector)
[5] = CSE-HRP, test compound without co-corrector, read-out: EC50 (without co-corrector)
[6] = CSE-HRP, with co-corrector (2 μM of 3-[(2R,4R)-4-({[1-(2,2-difluoro-1,3-benzodioxol-5-yl)cyclopropyl]carbonyl}amino)-7-methoxy-3,4-dihydro-2H-chromen-2-yl]benzoic acid), read-out: EC50 (with co-corrector)
[7] = CSE-HRP, with co-corrector (2 μM)

T1 sequence (P13569 with tags, fused parts or gaps DEL508-508): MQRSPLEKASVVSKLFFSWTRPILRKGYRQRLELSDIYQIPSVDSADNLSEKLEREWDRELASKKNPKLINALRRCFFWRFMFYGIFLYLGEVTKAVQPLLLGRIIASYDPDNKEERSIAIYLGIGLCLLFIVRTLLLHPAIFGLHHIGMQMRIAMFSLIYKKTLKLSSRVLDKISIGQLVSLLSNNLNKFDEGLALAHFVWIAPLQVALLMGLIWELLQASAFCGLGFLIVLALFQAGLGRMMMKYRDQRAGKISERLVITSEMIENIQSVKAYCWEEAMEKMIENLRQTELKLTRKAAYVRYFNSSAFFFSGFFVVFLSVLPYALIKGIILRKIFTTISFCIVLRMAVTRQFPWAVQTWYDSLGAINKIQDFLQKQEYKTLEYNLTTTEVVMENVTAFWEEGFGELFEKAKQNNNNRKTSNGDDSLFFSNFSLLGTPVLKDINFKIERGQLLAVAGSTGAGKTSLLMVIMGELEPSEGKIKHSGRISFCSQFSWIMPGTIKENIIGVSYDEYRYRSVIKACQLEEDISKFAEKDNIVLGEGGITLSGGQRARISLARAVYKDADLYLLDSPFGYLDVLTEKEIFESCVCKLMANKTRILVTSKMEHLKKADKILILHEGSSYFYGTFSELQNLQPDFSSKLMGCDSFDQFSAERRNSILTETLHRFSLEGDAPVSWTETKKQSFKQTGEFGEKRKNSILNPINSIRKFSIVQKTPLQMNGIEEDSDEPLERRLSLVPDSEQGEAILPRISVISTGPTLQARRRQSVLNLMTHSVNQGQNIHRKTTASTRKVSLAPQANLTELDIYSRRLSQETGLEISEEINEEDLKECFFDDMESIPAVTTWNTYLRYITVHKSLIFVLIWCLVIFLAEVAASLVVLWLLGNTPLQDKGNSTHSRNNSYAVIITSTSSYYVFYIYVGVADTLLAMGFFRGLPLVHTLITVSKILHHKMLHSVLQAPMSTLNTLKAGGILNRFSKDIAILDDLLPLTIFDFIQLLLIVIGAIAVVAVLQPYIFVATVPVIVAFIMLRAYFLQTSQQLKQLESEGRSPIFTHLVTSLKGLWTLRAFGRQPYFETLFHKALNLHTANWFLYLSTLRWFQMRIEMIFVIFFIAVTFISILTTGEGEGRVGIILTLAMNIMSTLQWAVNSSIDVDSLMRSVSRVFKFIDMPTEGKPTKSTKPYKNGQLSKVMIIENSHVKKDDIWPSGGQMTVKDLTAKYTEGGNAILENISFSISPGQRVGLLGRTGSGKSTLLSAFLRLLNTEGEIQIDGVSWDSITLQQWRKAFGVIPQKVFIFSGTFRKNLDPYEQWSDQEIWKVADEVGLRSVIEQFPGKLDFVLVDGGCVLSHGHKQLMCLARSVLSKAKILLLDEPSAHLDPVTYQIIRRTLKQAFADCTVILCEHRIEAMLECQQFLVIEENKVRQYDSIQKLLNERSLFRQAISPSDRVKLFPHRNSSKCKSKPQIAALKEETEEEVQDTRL

SMILES	EC50 [2]	Maximum % activity (with co-corrector) [3]	EC50 [4]	Maximum % activity (with co-corrector) (with co-corrector (2 μM))	Emax (without co-corrector)	other results
COc1ccc(C(C)(C)C)cc1CN[C@H]1[C@H](C(C)(C)C)[C@@H](C(=O)O)N(C(=O)C2COc3ccccc3O2)[C@H]1c1cccnc1N(C)C (single isomer, unassigned) [II-471]	> 10 µM	++ (≥150 and <350)	< 1 µM			Emax [1]: < 100%
COc1ccc(C(C)(C)C)cc1CN[C@H]1[C@H](C(C)(C)C)[C@@H](C(=O)O)N(C(=O)C2COc3ccccc3O2)[C@H]1c1cccnc1N(C)C (single isomer, unassigned) [II-472]	1 to 10 µM	++ (≥150 and <350)	1 to 10 µM			Maximum % activity (without co-corrector) [1]: + (<100)
COc1ccc(C(C)(C)C)cc1CN[C@H]1[C@H](C(C)(C)C)[C@@H](C(=O)O)N(C(=O)C2Cc3ccccc3CO2)[C@H]1c1cccnc1N(C)C (single isomer, unassigned) [II-480]	1 to 10 µM	+++ (≥350)	1 to 10 µM			Emax [1]: < 100%
COc1ccc(C(C)(C)C)cc1CN[C@H]1[C@H](C(C)(C)C)[C@@H](C(=O)O)N(C(=O)C2Cc3ccccc3CO2)[C@H]1c1cccnc1N(C)C (single isomer, unassigned) [II-481]	1 to 10 µM	+++ (≥350)	1 to 10 µM			Maximum % activity (without co-corrector) [1]: ++ (≥100 and <200)
COc1ccc(C(C)(C)C)cc1CN[C@H]1[C@H](C(C)(C)C)[C@@H](C(=O)O)N(C(=O)C2CCCCO2)[C@H]1c1cccnc1OC(F)F (single isomer, unassigned) [II-489]	1 to 10 µM	+++ (≥350)	1 to 10 µM			Emax [1]: 100 to 200%
COc1ccc(C(C)(C)C)cc1CN[C@H]1[C@H](C(C)(C)C)[C@@H](C(=O)O)N(C(=O)C2CCCCO2)[C@H]1c1cccnc1OC(F)F (single isomer, unassigned) [II-490]	1 to 10 µM	+++ (≥350)				
COc1cc(C(F)(F)F)ccc1CN[C@@H]1[C@@H](C(C)(C)C)[C@H](C(=O)O)N(C(=O)C(C)c2ccccc2)[C@@H]1c1ccccc1 (single isomer, unassigned) [III-112]	1 to 10 µM		1 to 10 µM	++ (≥150 and <350)		Emax [1]: < 100%
COc1ccc(C(C)(C)C)cc1CN[C@H]1[C@H](C(C)(C)C)[C@@H](C(=O)O)N(C(=O)C(C)n2cc(Cl)c(C)n2)[C@H]1c1ccccc1 (single isomer, unassigned) [III-182]						EC50 [5]: 1 to 10 µM; EC50 [6]: 1 to 10 µM; Maximum % activity (with co-corrector) [7]: +++ (≥350); Maximum % activity (without co-corrector) (CSE-HRP, without co-corrector): +++ (≥200)
COc1cc(C(F)(F)F)ccc1CN[C@H]1[C@H](C(C)(C)C)[C@@H](C(=O)O)N(C(=O)C2CCCCC2)[C@H]1c1ccccc1OC (stereo in doubt) [II-50]						EC50 [5]: < 1 µM; EC50 [6]: < 1 µM; Maximum % activity (with co-corrector) [7]: +++ (≥350); Emax (CSE-HRP, without co-corrector): 100 to 200%
COc1cc(C(F)(F)F)ccc1CN[C@@H]1[C@@H](C(C)(C)C)[C@H](C(=O)O)N(C(=O)C2CCCCC2)[C@@H]1c1ccccc1OC (stereo in doubt) [III-40]	1 to 10 µM	+++ (≥350)	< 1 µM			Emax [1]: 100 to 200%
Cc1cc(C(F)(F)F)cc(N[C@@H]2[C@@H](C(C)(C)C)[C@H](C(=O)O)N(C(=O)C3CCCCC3)[C@@H]2c2ccccc2)n1 [Example 3, (2R,3R,4R,5R)-3-tert-butyl-1-(cyclohexanecarbonyl)-4-{[6-methyl-4-(trifluoromethyl)pyridin-2-yl]amino}-5-phenylpyrrolidine-2-carboxylic acid]	1 to 10 µM		1 to 10 µM	++ (≥150 and <350)	< 100%	
Cc1cc(C(F)(F)F)cc(N[C@H]2[C@H](C(C)(C)C)[C@@H](C(=O)O)N(C(=O)C3CCCCC3)[C@H]2c2ccccc2)n1 [Example 4, (2S,3S,4S,5S)-3-tert-butyl-1-(cyclohexanecarbonyl)-4-{[6-methyl-4-(trifluoromethyl)pyridin-2-yl]amino}-5-phenylpyrrolidine-2-carboxylic acid]	1 to 10 µM		1 to 10 µM	+++ (≥350)	< 100%	
COc1ccc(C(C)(C)C)cc1CN[C@H]1[C@H](C(C)(C)C)[C@@H](C(=O)O)N(C(=O)C2CCCCC2)[C@H]1c1ccccc1 [Example 7, (2S,3S,4S,5S)-3-tert-butyl-4-{[(5-tert-butyl-2-methoxyphenyl)methyl]amino}-1-(cyclohexanecarbonyl)-5-phenylpyrrolidine-2-carboxylic acid]	< 1 µM		< 1 µM	+++ (≥350)	> 200%	
COc1cc(C(F)(F)F)ccc1CN[C@H]1[C@H](C(C)(C)C)[C@@H](C(=O)O)N(C(=O)C2CCCCC2)[C@H]1c1ccccc1 [Example 8, (2S,3S,4S,5S)-3-tert-butyl-1-(cyclohexanecarbonyl)-4-({[2-methoxy-4-(trifluoromethyl)phenyl]methyl}amino)-5-phenylpyrrolidine-2-carboxylic acid]	1 to 10 µM		< 1 µM	+++ (≥350)	100 to 200%	
COc1ccc(C(F)(F)F)cc1CN[C@H]1[C@H](C(C)(C)C)[C@@H](C(=O)O)N(C(=O)C2CCCCC2)[C@H]1c1ccccc1 [Example 9, (2S,3S,4S,5S)-3-tert-butyl-1-(cyclohexanecarbonyl)-4-({[2-methoxy-5-(trifluoromethyl)phenyl]methyl}amino)-5-phenylpyrrolidine-2-carboxylic acid]	< 1 µM		< 1 µM	+++ (≥350)	100 to 200%	
COc1cc(C(F)(F)F)ccc1CN[C@H]1[C@H](C(C)(C)C)[C@@H](C(=O)O)N(C(=O)[C@@H]2CCCCO2)[C@H]1c1ccccc1 [Example 10, (2S,3S,4S,5S)-3-tert-butyl-4-({[2-methoxy-4-(trifluoromethyl)phenyl]methyl}amino)-1-[(2S)-oxane-2-carbonyl]-5-phenylpyrrolidine-2-carboxylic acid]	1 to 10 µM		1 to 10 µM	+++ (≥350)	> 200%	
COc1ncc(C(F)(F)F)cc1CN[C@H]1[C@H](C(C)(C)C)[C@@H](C(=O)O)N(C(=O)C2CCCCC2)[C@H]1c1ccccc1 [Example 12, (2S,3S,4S,5S)-3-tert-butyl-1-(cyclohexanecarbonyl)-4-({[2-methoxy-5-(trifluoromethyl)pyridin-3-yl]methyl}amino)-5-phenylpyrrolidine-2-carboxylic acid]	< 1 µM		< 1 µM	+++ (≥350)	100 to 200%	
COc1ccc(C(C)(C)C)cc1CN[C@H]1[C@H](C(C)(C)C)[C@@H](C(=O)O)N(C(=O)OC(C)C)[C@H]1c1ccccc1OC [Example 13, (2S,3S,4S,5S)-3-tert-butyl-4-{[(5-tert-butyl-2-methoxyphenyl)methyl]amino}-5-(2-methoxyphenyl)-1-{[(propan-2-yl)oxy]carbonyl}pyrrolidine-2-carboxylic acid]	1 to 10 µM		1 to 10 µM	+++ (≥350)	100 to 200%	
